A word on the Ki: it is the equilibrium dissociation constant of an inhibitor or competing ligand from its target.

The target of the test is T1, human PTHR1 receptor (Homo sapiens, UniProt Q03431).
T1 construct: purchased Eurofins HTS030M
T1 sequence (Q03431 27-593): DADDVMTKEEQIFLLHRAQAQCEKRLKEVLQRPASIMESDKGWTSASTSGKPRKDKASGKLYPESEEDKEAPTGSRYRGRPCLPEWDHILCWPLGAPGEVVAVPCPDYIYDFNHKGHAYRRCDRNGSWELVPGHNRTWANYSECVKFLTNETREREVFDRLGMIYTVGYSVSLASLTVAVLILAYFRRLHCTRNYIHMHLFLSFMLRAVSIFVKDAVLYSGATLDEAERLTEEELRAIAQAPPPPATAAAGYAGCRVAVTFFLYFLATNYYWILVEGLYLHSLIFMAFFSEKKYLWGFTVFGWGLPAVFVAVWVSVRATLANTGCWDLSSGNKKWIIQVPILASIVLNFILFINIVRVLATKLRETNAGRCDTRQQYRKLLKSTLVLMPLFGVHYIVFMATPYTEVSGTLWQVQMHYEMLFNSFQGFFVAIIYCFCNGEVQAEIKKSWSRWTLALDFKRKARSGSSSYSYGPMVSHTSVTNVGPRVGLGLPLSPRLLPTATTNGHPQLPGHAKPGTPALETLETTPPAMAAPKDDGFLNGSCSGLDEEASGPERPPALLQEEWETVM
The test is described as follows: Competitive antagonist binding assay for hPTH-R1 (radioactive competition binding, SPA beads). To be noted: human PTHR1 membranes, [125I]-[Nle8,18,Tyr34]-PTH(1-34) 0.2 nM, 90 minutes at room temperature; read-out: hPTHR1 Ki. On the procedure: Competitive Antagonist Binding Assay Protocol for hPTH-R1 Antagonists:
The inhibition of binding to the human PTHR1 receptor was measured in a radioactive competition binding assay using the radiolabeled [^125I]-[NLE^8,18, TYR^34]-parathyroid hormone (1-34) ligand (PerkinElmer Cat# NEX244, custom synthesis) as the probe ligand for the receptor. Briefly, membranes from cells expressing the human PTHR1 (Eurofins Cat# HTS030M) were incubated with SPA beads (PerkinElmer Cat# RPNQ0001) in binding assay buffer [50 mM HEPES (Biopioneer Cat# C0113), 5 mM MgCl2 (Sigma Cat# M8266), 10 mM CaCl2 (Fisher Scientific Cat# BP510), 0.1% BSA (Fisher Scientific Cat# BP1600), 0.01% TritonX-100 (Bio-Rad Cat#161-0407), and protease inhibitors (Pierce Cat# A32963); pH 7.4]. Membranes bound to SPA bead were treated with various dilutions of compounds (final concentrations typically 0-10,000 nM), and 0.2 nM radiolabeled ligand in 96-well isoplates (PerkinElmer Cat#6005040) for 90 minutes at room temperature. The radioactive signal was detected using a MicroBetaTriLux 1450 LSC (PerkinElmer). All data manipulations to determine the Ki values were performed using GraphPad v8 (GraphPad, San Diego Calif.).
For “3-({2-[(4-{4-chloro-13-cyano-8-methyl-9-oxo-6,8,10-triazatricyclo[9.4.0.0^2,7]pentadeca-1(11),2(7),3,5,12,14-hexaen-10-yl}-3,5-difluorophenyl)amino]ethyl}amino)propanoic acid [1-217]”, the Ki is below 0.1 µM.

On to “4-chloro-10-(2,6-difluoro-4-{[2-(methylamino)ethyl]amino}phenyl)-8-methyl-9-oxo-6,8,10-triazatricyclo[9.4.0.0^2,7]pentadeca-1(11),2(7),3,5,12,14-hexaene-13-carbonitrile [1-211]”, for which the Ki is below 0.1 µM.

Take “10-[4-({2-[(3-amino-2-hydroxypropyl)amino]ethyl}amino)-2,6-difluorophenyl]-4-chloro-8-ethyl-9-oxo-6,8,10-triazatricyclo[9.4.0.0^2,7]pentadeca-1(11),2(7),3,5,12,14-hexaene-13-carbonitrile [1-188]”: the Ki was below 0.1 µM.

For `CNCCNc1cc(F)c(N2C(=O)N(C)c3ncccc3-c3ccc(Cl)cc32)c(F)c1` [1-1, 13-chloro-10-(2,6-difluoro-4-{[2-(methylamino)ethyl]amino}phenyl)-8-methyl-6,8,10-triazatricyclo[9.4.0.0^2,7]pentadeca-1(11),2(7),3,5,12,14-hexaen-9-one], the Ki is below 0.1 µM.

Regarding `CCN1C(=O)N(c2c(F)cc(NCCNC)cc2F)c2cc(Cl)ccc2-c2cccnc21` [1-2, 13-chloro-10-(2,6-difluoro-4-{[2-(methylamino)ethyl]amino}phenyl)-8-ethyl-6,8,10-triazatricyclo[9.4.0.0^2,7]pentadeca-1(11),2(7),3,5,12,14-hexaen-9-one], the inhibitory constant (Ki) is below 0.1 µM.

With `CCN1C(=O)N(c2c(F)cc(NCCN)cc2F)c2cc(Cl)ccc2-c2cccnc21` [1-3, 10-{4-[(2-aminoethyl)amino]-2,6-difluorophenyl}-13-chloro-8-ethyl-6,8,10-triazatricyclo[9.4.0.0^2,7]pentadeca-1(11),2(7),3,5,12,14-hexaen-9-one], the Ki is below 0.1 µM.

For the compound `CCN1C(=O)N(c2c(F)cc(NCCNC3CCOCC3)cc2F)c2cc(Cl)ccc2-c2cccnc21` [1-4, 13-chloro-10-[2,6-difluoro-4-({2-[(oxan-4-yl)amino]ethyl}amino)phenyl]-8-ethyl-6,8,10-triazatricyclo[9.4.0.0^2,7]pentadeca-1(11),2(7),3,5,12,14-hexaen-9-one], the Ki was below 0.1 µM.

For the compound `CCN1C(=O)N(c2c(F)cc(NCCNC3CCOC3)cc2F)c2cc(Cl)ccc2-c2cccnc21` (centres unmarked) [1-5, 13-chloro-10-[2,6-difluoro-4-({2-[(oxolan-3-yl)amino]ethyl}amino)phenyl]-8-ethyl-6,8,10-triazatricyclo[9.4.0.0^2,7]pentadeca-1(11),2(7),3,5,12,14-hexaen-9-one], the Ki is below 0.1 µM.

`CCN1C(=O)N(c2c(F)cc(NCCNCCCC(=O)O)cc2F)c2cc(Cl)ccc2-c2cccnc21` [1-6, 4-({2-[(4-{13-chloro-8-ethyl-9-oxo-6,8,10-triazatricyclo[9.4.0.0^2,7]pentadeca-1(11),2(7),3,5,12,14-hexaen-10-yl}-3,5-difluorophenyl)amino]ethyl}amino)butanoic acid]: the Ki was below 0.1 µM.

Regarding `CCN1C(=O)N(c2c(F)cc(NCCNCCO)cc2F)c2cc(Cl)ccc2-c2cccnc21` [1-7, 13-chloro-10-[2,6-difluoro-4-({2-[(2-hydroxyethyl)amino]ethyl}amino)phenyl]-8-ethyl-6,8,10-triazatricyclo[9.4.0.0^2,7]pentadeca-1(11),2(7),3,5,12,14-hexaen-9-one], the Ki was below 0.1 µM.

Regarding `CCN1C(=O)N(c2c(F)cc(NCCNC)cc2F)c2cc(Cl)ccc2-c2cc(Cl)cnc21` [1-8, 4,13-dichloro-10-(2,6-difluoro-4-{[2-(methylamino)ethyl]amino}phenyl)-8-ethyl-6,8,10-triazatricyclo[9.4.0.0^2,7]pentadeca-1(11),2(7),3,5,12,14-hexaen-9-one], the Ki is below 0.1 µM.

The record behind these values is patent publication US20230159532A1, “PARATHYROID HORMONE (PTH) RECEPTOR ANTAGONISTS AND USES THEREOF” (Crinetics Pharmaceuticals, Inc., priority 2021, published 2023).
